{"source": "PubChem BioAssay (NCI)", "test_in_all_cases": "NCI anticancer screen, dose series, 384-well format", "key": {"CCRF-CEM leukemia": {"system": "CCRF-CEM leukemia"}, "HCT-15 colon": {"system": "HCT-15 colon"}, "HOP-62 NSCLC": {"system": "HOP-62 NSCLC"}, "K-562 leukemia": {"system": "K-562 leukemia"}, "MDA-MB-231 breast": {"system": "MDA-MB-231 breast"}, "MOLT-4 leukemia": {"system": "MOLT-4 leukemia"}, "NCI-H522 lung": {"system": "NCI-H522 lung"}, "OVCAR-5 ovarian": {"system": "OVCAR-5 ovarian"}, "SF-295 CNS": {"system": "SF-295 CNS"}, "SK-MEL-2 melanoma": {"system": "SK-MEL-2 melanoma"}, "SNB-75 CNS": {"system": "SNB-75 CNS"}, "SW-620 colon": {"system": "SW-620 colon"}, "UO-31 renal": {"system": "UO-31 renal"}}, "note": "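GI50 = concentration required for 50% inhibition of growth. TGI marks complete inhibition of growth.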"}
{"smiles": "O=C1CC[C@H](N2Cc3c(OCc4ccc(CN5CCOCC5)cc4)cccc3C2=O)C(=O)N1", "values": [{"measurement": "GI50", "setting": "CCRF-CEM leukemia", "value": "> 100", "unit": "µM"}, {"measurement": "TGI", "setting": "CCRF-CEM leukemia", "value": "> 100", "unit": "µM"}, {"measurement": "GI50", "setting": "HCT-15 colon", "value": "> 100", "unit": "µM"}, {"measurement": "TGI", "setting": "HCT-15 colon", "value": "> 100", "unit": "µM"}, {"measurement": "GI50", "setting": "HOP-62 NSCLC", "value": "> 100", "unit": "µM"}, {"measurement": "TGI", "setting": "HOP-62 NSCLC", "value": "> 100", "unit": "µM"}, {"measurement": "GI50", "setting": "K-562 leukemia", "value": "> 100", "unit": "µM"}, {"measurement": "TGI", "setting": "K-562 leukemia", "value": "> 100", "unit": "µM"}, {"measurement": "GI50", "setting": "MDA-MB-231 breast", "value": "> 100", "unit": "µM"}, {"measurement": "TGI", "setting": "MDA-MB-231 breast", "value": "> 100", "unit": "µM"}, {"measurement": "GI50", "setting": "MOLT-4 leukemia", "value": "> 100", "unit": "µM"}, {"measurement": "TGI", "setting": "MOLT-4 leukemia", "value": "> 100", "unit": "µM"}, {"measurement": "GI50", "setting": "NCI-H522 lung", "value": "> 100", "unit": "µM"}, {"measurement": "TGI", "setting": "NCI-H522 lung", "value": "> 100", "unit": "µM"}, {"measurement": "GI50", "setting": "OVCAR-5 ovarian", "value": "> 100", "unit": "µM"}, {"measurement": "TGI", "setting": "OVCAR-5 ovarian", "value": "> 100", "unit": "µM"}, {"measurement": "GI50", "setting": "SF-295 CNS", "value": "> 100", "unit": "µM"}, {"measurement": "TGI", "setting": "SF-295 CNS", "value": "> 100", "unit": "µM"}, {"measurement": "GI50", "setting": "SK-MEL-2 melanoma", "value": "> 100", "unit": "µM"}, {"measurement": "TGI", "setting": "SK-MEL-2 melanoma", "value": "> 100", "unit": "µM"}, {"measurement": "GI50", "setting": "SNB-75 CNS", "value": "> 100", "unit": "µM"}, {"measurement": "TGI", "setting": "SNB-75 CNS", "value": "> 100", "unit": "µM"}, {"measurement": "GI50", "setting": "SW-620 colon", "value": "> 100", "unit": "µM"}, {"measurement": "TGI", "setting": "SW-620 colon", "value": "> 100", "unit": "µM"}, {"measurement": "GI50", "setting": "UO-31 renal", "value": "> 100", "unit": "µM"}, {"measurement": "TGI", "setting": "UO-31 renal", "value": "> 100", "unit": "µM"}]}
